Data on 3 molecules can be found in patent publication US7960419B2, “Substituted carboxamides” (Eli Lilly and Company, priority 2006, dated 2011).

Data set [1] has as its target T1, human recombinant mGlu1a receptor (Homo sapiens, UniProt Q13255).
T1 construct: expressed in transfected cells
Nature of the data set: glutamate induced calcium flux (FLIPR, Fluo-3) in AV-12 cells expressing mGlu1a. Particulars: inhibition of peak fluorescence response to glutamate at EC90% (10 μM). In kind it is cell-based. The protocol: The relative potency and selectivity of compounds of the instant invention for mGlu1 receptors is evaluated using stable clonal cell lines expressing recombinant mGlu1, 2, 3, 4. 5 or 8 receptors transfected into AV12 cell lines containing the rat EAAT1 glutamate transporter (RGT) cells.
For example, in more detail, compounds of the present invention are evaluated for effects on glutamate induced calcium flux responses using an AV-12 cell line expressing human recombinant mGlu1a receptor protein (see Kingston et al. Neuropharmacology. 37(1):1-12, 1998). mGlu1 receptor mediated responses are determined by changes in intracellular calcium concentrations measured by a fluorescent calcium sensitive dye Fluo-3. […] Unincorporated extracellular dye is removed from the wells by washing with buffer solution, and plates are then transferred to a 96-channel fluorimetric imaging plate reader (FLIPR-Molecular Devices Corporation, La Jolla, Calif., USA). Baseline fluorescence readings are undertaken for 10 sec prior to addition of test compounds by an automatic pipetting device integral to the FLIPR instrument. Following a 20 sec delay, glutamate is then added to the wells at an EC90% concentration (10 μM); and changes in fluorescence are monitored over 60 sec. […] IC50 values are calculated using a 4 parameter logistic curve fitting program (GraphPad Prism™ V4 or Activity Base™ V5.3 software).
(A change in cytosolic calcium serves as a functional read-out for many receptors and channels.)

Data set [2] concerns fasted male Harlan Sprague Dawley rats. Nature of the data set: Formalin model. In kind it is in vivo, rat. The protocol:
(§1) These well known pain models conveniently may be carried out as summarized below. […] All data are analyzed by ANOVA and Dunnett's t-test using JMPv4.1 (SAS Institute Inc., Cary, N.C.) statistical software unless otherwise indicated. Data are expressed as means±SEM. Specific conditions for each model are briefly described.
Formalin model: Drug is administered prior to formalin (50 μl, 5%), injected s.c. into the dorso-lateral surface of the right hindpaw. Paw-licking behavior is measured in an automated assay, as number of events, from 0-50 minutes after formalin. Data are expressed as paw-licking pain behavior events in early phase (0-5 minutes) or late phase (15-40 minutes). […] L5/L6 Spinal Nerve ligation model: Tight ligation is performed on L5 and L6 spinal nerves (one side only). Two weeks later, mechanical allodynia behavior is measured using von Frey filaments using incremental bending forces (0.5-15 g) at various time points after drug administration. Carrageenan model: Carrageenan (100 μl, 3%) is injected into the plantar surface of the right paw, and drug is administered two hours after carrageenan. Thermal hyperalgesia is measured using a radiant heat source, with a 30 second cut off to prevent tissue damage. Paw withdrawal latency in seconds is measured as the difference between the inflammed paw and the non-inflammed left paw. Capsaicin model: Drug is administered prior to capsaicin. Capsaicin (25 μl, 30 μg) in olive oil is injected into the plantar surface of the right paw. Mechanical allodynia behavior is measured using von Frey filaments using incremental bending forces (0.5-15 g) at 15 minutes and 1 hour after capsaicin. Tail Flick model: Radiant heat source at base of tail with 10 sec cut off is used to elicit tail flick response at various time points after drug administration. Rotorod test: Male Sprague Dawley rats (180-230 g, Harlan labs, Indianapolis) are used for the rotorod test. […] Data are analyzed by ANOVA and Dunnett's t-test using JMPv4.1 (SAS Institute Inc., Cary, N.C.) statistical software. Data are expressed as means±SEM.

Data set [3] shares this test system. As to the kind of experiment: Carrageenan model. In kind it is in vivo, rat. To be noted: fasted male HSD rats, at doses with no deficit in the rotorod test. The protocol:
as §1
(§2) Formalin model: Drug is administered prior to formalin (50 μl, 5%), injected s.c. into the dorso-lateral surface of the right hindpaw. Paw-licking behavior is measured in an automated assay, as number of events, from 0-50 minutes after formalin. Data are expressed as paw-licking pain behavior events in early phase (0-5 minutes) or late phase (15-40 minutes). […] Two weeks later, mechanical allodynia behavior is measured using von Frey filaments using incremental bending forces (0.5-15 g) at various time points after drug administration. […] Thermal hyperalgesia is measured using a radiant heat source, with a 30 second cut off to prevent tissue damage. Paw withdrawal latency in seconds is measured as the difference between the inflammed paw and the non-inflammed left paw. […] Mechanical allodynia behavior is measured using von Frey filaments using incremental bending forces (0.5-15 g) at 15 minutes and 1 hour after capsaicin. […] Data are analyzed by ANOVA and Dunnett's t-test using JMPv4.1 (SAS Institute Inc., Cary, N.C.) statistical software. Data are expressed as means±SEM.
(In general: Falling from the rotarod earlier than controls is read as motor impairment.)

The test system is the same in data set [4]. Nature of the data set: Capsaicin model. In kind it is in vivo, rat. Particulars: fasted male HSD rats, at doses with no deficit in the rotorod test. On the procedure: as §1, §2
Data set [5] has the same test system. As to the kind of experiment: Tail Flick model. In kind it is in vivo, rat. Particulars: fasted male HSD rats, at doses with no deficit in the rotorod test. The protocol:
as §1, §2

For a further data set, the system named is non-fasted male HSD rats. As to the kind of experiment: L5/L6 Spinal Nerve ligation model. In kind it is in vivo, rat. To be noted: non-fasted male HSD rats (300-350 g), at doses with no deficit in the rotorod test. The protocol:
as §1, §2

Another data set deals with Male Sprague Dawley rats. Nature of the data set: Rotorod test. To be noted: at the doses active in the pain models. In kind it is in vivo, rat. On the procedure:
as §1, §2

The conditions of data set [6]: in vivo; cited from earlier work.
The conditions of data set [7]: in vivo; cited from earlier work. The source holds these as a separate data set.

T1 sequence (Q13255 19-1194): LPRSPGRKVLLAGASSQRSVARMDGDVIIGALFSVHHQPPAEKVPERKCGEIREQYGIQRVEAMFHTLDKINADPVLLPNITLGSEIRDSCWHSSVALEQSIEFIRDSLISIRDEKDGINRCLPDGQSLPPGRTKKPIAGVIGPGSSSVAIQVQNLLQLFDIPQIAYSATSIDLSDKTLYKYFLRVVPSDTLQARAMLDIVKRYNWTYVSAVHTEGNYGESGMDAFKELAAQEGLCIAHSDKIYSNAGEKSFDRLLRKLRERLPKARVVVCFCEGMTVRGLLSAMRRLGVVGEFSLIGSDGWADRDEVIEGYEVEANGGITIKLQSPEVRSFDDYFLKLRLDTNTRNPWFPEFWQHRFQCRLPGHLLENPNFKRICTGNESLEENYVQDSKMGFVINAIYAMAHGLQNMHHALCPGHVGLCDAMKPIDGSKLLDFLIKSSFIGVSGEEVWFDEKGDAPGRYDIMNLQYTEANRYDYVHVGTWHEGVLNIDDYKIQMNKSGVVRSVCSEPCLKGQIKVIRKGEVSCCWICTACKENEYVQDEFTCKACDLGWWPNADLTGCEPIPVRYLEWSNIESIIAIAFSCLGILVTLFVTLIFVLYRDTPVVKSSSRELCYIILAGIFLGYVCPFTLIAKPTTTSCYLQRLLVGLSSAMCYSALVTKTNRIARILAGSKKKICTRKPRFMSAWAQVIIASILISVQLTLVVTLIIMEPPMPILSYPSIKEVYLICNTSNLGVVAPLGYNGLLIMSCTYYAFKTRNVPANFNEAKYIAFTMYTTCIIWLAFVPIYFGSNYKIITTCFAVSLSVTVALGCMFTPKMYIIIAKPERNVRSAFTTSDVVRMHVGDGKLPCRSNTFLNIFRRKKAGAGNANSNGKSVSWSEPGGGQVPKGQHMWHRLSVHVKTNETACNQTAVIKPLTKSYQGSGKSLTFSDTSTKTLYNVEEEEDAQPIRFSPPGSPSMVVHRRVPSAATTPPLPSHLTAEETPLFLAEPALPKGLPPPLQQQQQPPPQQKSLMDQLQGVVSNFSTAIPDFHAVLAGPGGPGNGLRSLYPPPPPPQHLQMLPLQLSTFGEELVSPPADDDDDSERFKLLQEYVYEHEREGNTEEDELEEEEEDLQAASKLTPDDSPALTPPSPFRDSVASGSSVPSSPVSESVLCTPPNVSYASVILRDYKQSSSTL

As usually defined, the IC50 is the concentration needed to halve the response being measured. As for `Cc1c(-c2ccc(Cl)cc2)nsc1NC(=O)[C@@H]1C[C@H]1C` [Example 6, (R,R)—N-[3-(4-chlorophenyl)-4-methylisothiazol-5-yl]-2-methylcyclopropanecarboxamide], in data set [1], the IC50 was under 20 nM. For the same molecule, in data set [2] (1 to 30 mg/kg), the “late phase pain behavior (paw-licking, 15-40 minutes)” value is reported as “dose dependent attenuation”.

Consider `COc1ccc(-c2nsc(NC(=O)[C@@H]3C[C@H]3C)c2C)cc1` [Example 1, (R,R)—N-[3-(4-methoxyphenyl)-4-methylisothiazol-5-yl]-2-methylcyclopropanecarboxamide], for which the IC50 in [1] was under 20 nM. Also, the “activity in the formalin model” value in data set [2] (fasted male HSD rats, at doses with no deficit in the rotorod test) is “dose-dependent activity”. Also, the “late phase pain behavior (paw-licking, 15-40 minutes)” value in data set [2] (fasted rats, 3 to 60 mg/kg, p.o., 1 hour prior to formalin) is given as “dose dependent attenuation”. Also, the “activity in the carrageenan model” value in data set [3] is “dose-dependent activity”. Further, in data set [4], the “activity in the capsaicin model” value was “dose-dependent activity”. Besides, in data set [5], the “activity in the tail flick model” value is “dose-dependent activity”. Further, the “activity in the L5/L6 spinal nerve ligation model” value with non-fasted male HSD rats is “dose-dependent activity”. Moreover, the “performance in the rotorod test” value in the data set on Male Sprague Dawley rats was “no deficit in performance”.

For the molecule `COc1ccc(Nc2ncnc3ccc(OC)cc23)cc1` [LY456236], in data set [6], the “nocifensive responses in the formalin test” value is recorded as “can reduce nocifensive responses”. For the same molecule, the “mechanical allodynia in the L5/L6 spinal nerve ligation model” value in data set [7] is “can reduce”.
